“Also recorded” adds a separate entry of the source. Where a name gives a salt, the structure may show the parent alone. Residues, ends and D or L forms follow the SMILES beside them. *: point of attachment. Cbz = O=C(OCc1ccccc1)*
Tests used:
[1] = system: MM cells; test: MM cell viability and proliferation with proteasome inhibitor MG-132; assay type: cell-based; conditions: for proliferation: MG-132 alone
[2] = molecular target: T1, p38α MAPK (Homo sapiens, UniProt Q16539); test: p38α phospho-specific immunodetection in MM cells and BMSC; assay type: cell-based; conditions: BMSC treated with MG-132
T1 construct: endogenous in cells; host or cells: U266, IM9, RPMI8226 cells; BMSC
Text: (§1) Specific antibodies to p38 MAP kinase are from Santa Cruz Biotechnology (Santa Cruz, Calif.). Antibodies to phospho-p38 MAP kinase (T180/Y182) and phospho-Hsp27 (S82) are from Cell Signaling (Beverly, Mass.). Antibodies to Hsp27 and phospho-Hsp27 (S78) are from Upstate Biotechnology (Lake Placid, N.Y.). Anti-MAPKAPK-2 is from StressGen (San Diego, Calif.) while anti-GAPDH is from Biogenesis Ltd. (Poole, UK).

[3] = system: calpains, cathepsins, and other lysosomal enzymes; conditions: cited from earlier work
[4] = system: MM cells; test: treatment of a patient with multiple myeloma; assay type: in vivo; conditions: in combination with VELCADE
Text: A patient is diagnosed with multiple myeloma. The patient presents with MM cells with rapid growth rates, which displace osteoblasts, and disrupting the balance of bone creation and destruction. A number of MM-related cytokines, such as IL-6, VEGF, IL-11, and PGE-2 are detectable. […] MM cell growth is inhibited and MM-related cytokine product is reduced. A patient diagnosed with multiple myeloma receives VELCADE and responds well until VELCADE-resistant MM cells develop. Drug resistant MM cells with rapid growth rates begin to populate the bone marrow of the subject. Elevated levels of MM-related cytokines, such as IL-6, VEGF, IL-11, and PGE-2 are again detectable.

[5] = system: Hsp27; test: Western blot of heat shock protein levels in MM cells; assay type: cell-based
Protocol: (§2) Total cell lysates are immunoprecipitated with anti-MAPKAPK-2 antibody and subjected to in vitro kinase assays using purified GST-Hsp27 as substrate. To examine Hsp27 phosphorylation in MM and transformed B cells, U266, IM9 and RPMI8226 cells are incubated either with DMSO or with 0.5 μM of a p38 MAPK inhibitor and cell lysates are immunoblotted with antibodies to phospho-Hsp27 (Ser 82) and Hsp27.
Cells are collected at various times and lysates are examined by Western Blot analysis using specific antibodies against particular proteins, with GAPDH as loading control. Specific antibodies to Hsp70 and Hsp90 are from Santa Cruz Biotechnology (Santa Cruz, Calif.).
The Western blots are examined for the total Hsp27 and phospho-Hsp27 levels at three different exposure times. […] This is consistent with observations made previously in MM.1S cells. […] This phenomenon appears to be unique to Hsp27 since a decrease in the levels of Hsp70 or Hsp90 in these same samples is not observed. […] The decrease of phospho-Hsp27 levels in the PS-341-treated cells is commensurate with the decrease of total Hsp27 protein in these cells.

[6] = system: MAPKAPK-2; test: MAPKAPK-2 in vitro kinase assay on immunoprecipitates of cell lysates, GST-Hsp27 substrate; assay type: cell-based; conditions: 0.5 μM
Protocol: as §2

[7] = system: MM/BMSC co-cultures; test: MM cell proliferation in MM/BMSC co-cultures with MG-132; assay type: cell-based; conditions: MM cells co-cultured with BMSC; FIG. 7
Protocol: Thus, proteasome inhibitors such as VELCADE might be limiting their own ability to induce apoptosis of MM cells by inducing growth-supporting activity in the microenvironment. Inhibition of the p38 response by BMSC would counteract this support.
For these studies, U266, IM9 and RPMI8226 cells are incubated with DMSO (−) or with 0.5 μM of a disclosed p38 MAPK inhibitor (+) for 1 hour and cell lysates are immunoblotted with antibodies to phospho-p38 and p38 MAP kinase by Western analysis. U266B1 and RPMI8226 are MM cell lines, and IM9 is an Epstein Barr Virus (EBV)-transformed B cell line with characteristics of MM cells. All can be obtained from American Type Culture Collection (ATCC; Rockville, Md.). All cell lines are maintained in RPMI-1640 (ATCC), supplemented with 10% fetal bovine serum (Hyclone; Logan, Utah), 100 units/ml of penicillin, 100 μg/ml streptomycin and 2 mM L-glutamine (Life Technologies, Inc.; Grand Island, N.Y.). BMSC (Cambrex) are maintained in Myelocult H5100 supplemented with 10^−6 M hydrocortisone (Stem Cell Technologies; Vancouver, B.C.), 100 units/ml of penicillin and 100 μg/ml streptomycin. MM cells are usually seeded at a density of 3×10^4 cells/well in 96-well culture plates. For MM co-cultures, BMSC are first seeded at 1.2×10^4 cells/well in a 96-well plate in Myelocult/hydrocortisone medium for 24 hours prior to the addition of MM cells.

[8] = system: RANKL mRNA; test: RANKL mRNA induction in BMSC and MM/BMSC cultures; assay type: cell-based; conditions: 100 nM
Protocol: In addition, 100 nM of these p38 MAPK inhibitors blocks the weaker induction of RANKL by IL-6 in BMSC.

[9] = system: HSP-27; test: immunodetection of phospho-HSP-27 in MM cells and BMSC; assay type: cell-based
Protocol: as §2
U266, IM9 and RPMI8226 cells are incubated with 0.5 μM of the p38 MAPK inhibitor for 1hour and Hsp27 proteins are immunoprecipitated with agarose-conjugated Hsp27 antibody, followed by immunoblotting with anti-phospho Hsp27 (Ser 78) antibody.
as §1

[10] = system: caspases and PARP; test: Western blot of caspase activation and PARP cleavage in MM cells; assay type: cell-based; conditions: RPMI8226; increasing duration of PS-341 treatment
Protocol: (§3) Detection of apoptotic cells was performed by staining with Annexin V-Phycoerythrin (PE) and 7-Amino Actinomycin D (7-AAD) (BD Pharmigen; San Diego, Calif.). Samples are analyzed by dual color flow cytometry using a FACScan laser flow cytometer and Cell Quest software (Becton Dickinson; San Jose, Calif.). 7-AAD is a nucleic acid dye that is used to exclude nonviable cells in flow cytometric assays. Cells that are Annexin V-PE positive and 7-AAD negative are considered early apoptotic. Antibodies to caspase-3, -6, -7, -8, -9, and PARP are from Cell Signaling (Beverly, Mass.).
Protein lysates from RPMI8226 cells obtained at these time points are collected in parallel and examined for Hsp27 levels, caspase activation and PARP cleavage by Western blot analysis.

[11] = MM patients; cited from earlier work
[12] = system: RPMI8226 cells; test: apoptosis by Annexin V-PE flow cytometry in RPMI8226 cells; assay type: cell-based
Protocol: Cells are collected at indicated times and assayed.
as §3

[13] = RPMI8226, 10 nM PS-341, 8 hours

T1 sequence (Q16539 whole entry): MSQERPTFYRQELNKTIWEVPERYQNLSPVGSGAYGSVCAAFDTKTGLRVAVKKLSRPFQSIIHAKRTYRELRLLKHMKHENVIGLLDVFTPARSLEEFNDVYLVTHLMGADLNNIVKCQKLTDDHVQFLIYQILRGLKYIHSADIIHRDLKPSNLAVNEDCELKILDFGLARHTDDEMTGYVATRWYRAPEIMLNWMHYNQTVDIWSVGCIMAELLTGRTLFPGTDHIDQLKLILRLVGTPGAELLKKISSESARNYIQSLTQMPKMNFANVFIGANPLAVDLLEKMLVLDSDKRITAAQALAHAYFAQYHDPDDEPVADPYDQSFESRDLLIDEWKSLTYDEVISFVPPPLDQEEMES

Compound: CC(C)C[C@@H](C=O)NC(=O)[C@H](CC(C)C)NC(=O)[C@H](CC(C)C)NC(=O)OCc1ccccc1 [MG-132, Carbobenzoxy-L-Leucyl-L-Leucyl-L-Leucinal, reference compound] (Cbz-Leu-Leu-Leu-aldehyde)
- proliferation ([1]; HS Sultan MM cells): block completely
- sensitivity of proliferation to MG-132 alone ([1]; IM9 MM cells): not sensitive
- proliferation ([1]; U266 MM cells): block completely
- activation of p38 [2]: resulted in activation of p38
- concentrations with activity against calpains, cathepsins and other lysosomal enzymes, above those used in the disclosed experiments [3]: ≥ 10 -fold

Compound: C[C@@H]1CN(Cc2ccc(F)cc2)[C@@H](C)CN1C(=O)c1cc2c(C(=O)C(=O)N(C)C)cn(C)c2cc1Cl [Compound 57 hydrochloride salt]
- sensitivity of the MM cells to VELCADE ([4]; patient with VELCADE-resistant MM): restores the sensitivity
- MM-related cytokine product ([4]; patient): reduced
- MM cell growth ([4]; patient, listed as Compound 57 in the hydrochloric salt form): again inhibited

Compound: C[C@@H]1CN(Cc2ccc(F)cc2)[C@@H](C)CN1C(=O)c1cc2c(C(=O)C(=O)N(C)C)cn(C)c2cc1Cl [Compound 57]
- total Hsp27 ([5]; 0.5 μM with 10 nM PS-341, 12 and 16 hours, RPMI8226 and IM9 cells): enhanced reduction
- total Hsp27 levels ([5]; inhibitor alone, even after prolonged incubation): does not affect
- IM9 proliferation ([1]; MG-132 in the presence of the p38 MAPK inhibitor, related to the dose of both): reduced or entirely blocked
- effect on the reduction of MM cell viability and proliferation caused by MG-132 ([1]; co-exposure with MG-132, MM cells, FIG. 6): enhanced the reduction of MM cell viability and proliferation; also recorded: enhances the anti-proliferative effect
- activity of downstream substrate MAPKAPK-2 [6]: suppresses
- effect on the ability of MG-132 to reduce MM cell proliferation [7]: enhanced the ability of MG-132 to reduce MM cell proliferation; also recorded: enhances the anti-proliferative effect
- induction of RANKL by IL-6 ([8]; BMSC): blocks
- induction of RANKL mRNA by TGFβ and IL-1 ([8]; BMSC and MM/BMSC cultures, FIG. 5): blocked this induction
- basal expression of RANKL mRNA ([8]; FIG. 5): blocked
- phosphorylation of HSP-27 ([9]; BMSC): blocked phosphorylation of HSP-27 completely
- phosphorylation of HSP-27 ([9]; MM cells): blocked phosphorylation of HSP-27 completely
- Hsp27 phosphorylation ([9]; U266, IM9 and RPMI8226, 0.5 μM, cell lysates or immunoprecipitation): inhibits
- Hsp27 phosphorylation ([9]; both drugs (PS-341 and p38 MAPK inhibitor), all time points): complete inhibition

Compound: CC(C)C[C@H](NC(=O)[C@H](Cc1ccccc1)NC(=O)c1cnccn1)B(O)O [PS-341]
- Hsp27 protein levels ([5]; RPMI8226, 10 nM PS-341, 12 and 16 hours): reduced
- Hsp27 expression [5, 13]: induced
- Hsp70 expression [5, 13]: induced
- decrease in the levels of Hsp70 or Hsp90 ([5]; RPMI8226, 10 nM PS-341, same samples): not observed
- PARP cleavage [10]: proportional increase
- activation or cleavage of procaspases-8, -9, -3, -6, and -7 [10]: successively increasing activation or cleavage
- clinically observed circulating concentration [11]: 40 to 100 nM
- apoptotic cells ([12]; 10 nM PS-341, 8 hours): early apoptotic cells are apparent
- apoptotic cells ([12]; 10 nM PS-341, 12 hours): about half the cells
- apoptotic cells ([12]; 10 nM PS-341, 16 hours): most

— patent publication US20060052390A1, “Treatment of multiple myeloma by p38 MAP kinase and proteasome inhibition” (Scios, Inc., priority 2003, published 2006)
